Reference: patent US7056908B2, “Pharmaceutical compositions and methods for preventing skin tumor formation and causing regression of existing tumors” (priority 1991, dated 2006)

Columns and labels:
[1] = tested on: primary keratinocytes; assay type: cell-based, mouse; settings: 60 nM bryostatin for 1 day
Method: EGF binding was assessed in 6-well tissue culture dishes plated at a cell density of 2.5×10^6 cells/well (Strickland, J. E. et al, “Interaction of epidermal growth factor with basal and differentiating epidermal cells of mice resistant and sensitive to carcinogenesis,” Carcinogenesis, 5: 735–740, 1984). […] A second set of cultures received, in addition, 1 μg/ml unlabelled EGF to assess non-specific binding of radioactive ligand. Following the incubation period, cultures were washed 4 times with ice-cold binding buffer, harvested in 1.5 ml lysis buffer (0.1 M tris (pH 7.4), 0.5% SDS, 1 mM EDTA), and radioactivity determined by scintillation counting.
Exposure of a variety of cultured cell types to TPA results in inhibition of EGF binding which is attributed to PKC-mediated phosphorylation of the EGF receptor (Diamond, L., “Tumor promoters and cell transformation,” In: D. Grunberger and S. P. Goff. (eds.), Mechanisms of Cellular Transformation by Carcinogenic Agents, pp. 73–133, New York: Pergamon Press. 1987).
Each point is the mean of trilpicate dishes±standard error of the mean.

[2] = tested on: primary keratinocytes; test: Cornified envelope formation in primary keratinocytes; assay type: cell-based, mouse; settings: additional experiment, 60 nM bryostatin
Method: Cornified Envelope Quantitation. Keratinocytes were analyzed for cornified envelope formation as described (Nagae, S. et al, “Effect of retinoic acid on cornified envelope formation: difference between spontaneous envelope formation in vivo or in vitro and expression of envelope competence,” J. Invest., Dermatol., 89: 51–58, 1987), with minor modifications. Floating cells were harvested by collecting culture medium from each 60 mm dish and combining with two washes using phosphate-buffered saline without Ca^2+ and Ms^+2 (PBS). Cells were pelleted for 5 minutes at 1000 rpm in a benchtop clinical centrifuge and resuspended in 100 μl of lysis buffer (2% sodium dodecyl sulfate (SDS) and 20 mM dithiothreitol in PBS). Attached cells were harvested in 250 μl lysis buffer, combined with the preparation of floating cells, and incubated at 95° for 10 minutes. The non-solubilized, intact cornified envelopes, characteristic of terminally differentiated keratinocytes, were counted using a hemocytometer (Nagae, S. et al, “Effect of retinoic acid on cornified envelope formation: difference between spontaneous envelope formation in vivo or in vitro and expression of envelope competence,” J. Invest. Dermatol., 89: 51–58, 1987).
Floating and attached cell populations were harvested and cornified envelopes isolated. Data are mean values for three separate dishes±standard error of the mean from one experiment.
7 day old primary keratinocytes were cultured with or without 60 nM bryostatin for 15 hours. […] Each data bar is the average value from duplicate dishes with the range indicated by error bars.

## CCC/C=C/C=C/C(=O)O[C@H]1/C(=C/C(=O)OC)C[C@H]2C[C@H]([C@@H](C)O)OC(=O)C[C@H](O)C[C@@H]3C[C@H](OC(C)=O)C(C)(C)[C@](O)(C[C@@H]4C/C(=C/C(=O)OC)C[C@H](/C=C/C(C)(C)[C@]1(O)O2)O4)O3 [bryostatin]
[1]; average over a 4 hour period
  block by bryostatin pre-treatment of staurosporine-mediated inhibition of 125I-EGF binding: 50%
[1]; over a 4 hour period
  block by bryostatin pre-treatment of TPA-mediated inhibition of 125I-EGF binding: completely blocked
[2]; TPA-treated cultures
  reduction of cornified envelope formation by bryostatin pre-treatment: 70%
[2]; staurosporine-treated cultures
  reduction of cornified envelope formation by bryostatin pre-treatment: 70%
